Experimental data reported in patent US20230295234A1, “ANTIMICROBIAL PEPTIDOMIMETICS” (SPEXIS AG, priority 2020, published 2023).
Where two headings read alike, the source gives them in different places. Peptide text beside a SMILES is read from it.

Tests used:
[1] = test system: human red blood cells (hRBC); test: Hemolysis of human red blood cells; type: cell-based
How it was run: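 Percent hemolysis is OD540 of peptide-treated supernatant relative to water-lysed cells. Each peptide was tested at 200 μg/mL against 20% (v/v) washed human erythrocytes. Incubation was 1 h at 37 °C, 300 rpm.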

[2] = test system: Klebsiella pneumoniae SSI3010
How it was run: (§1)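 Peptides were made up as 1 mg/mL stocks in sterile water. Colonies in 0.85% saline were set to 0.5 McFarland, then diluted in cation-adjusted Mueller-Hinton II broth to about 5×10^5 CFU/mL. Inoculum was combined with two-fold serial peptide dilutions in water containing 0.002% (final) polysorbate 80.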

[3] = test system: Escherichia coli MCR-1 Af 45; conditions: Mueller-Hinton broth II, 18-20 hours at 35° C.
How it was run: as §1

[4] = test system: Escherichia coli ATCC 25922
How it was run: as §1

[5] = Mueller-Hinton broth II, 18-20 hours at 35° C.

Compound	Hemolysis at 0.2 g/L ([1]; 20% hRBC, 1 h at 37° C.)	Klebsiella pneumoniae SSI3010 MIC [2, 5]	Escherichia coli MCR-1 Af 45 MIC [3]	Escherichia coli ATCC 25922 MIC [4, 5]	Hemolysis at 0.2 g/L ([1]; red cells of human, 1 h)	Klebsiella pneumoniae SSI3010 MIC ([2]; SSI3010)	Escherichia coli ATCC 25922 MIC ([4]; ATCC 25922)
CC[C@H](C)[C@H](NC(=O)[C@@H](NC(=O)[C@@H]1CCCN1C(=O)[C@@H](N)C(C)C)[C@@H](C)CC)C(=O)N[C@@H](Cc1ccc(O)cc1)C(=O)N[C@@H]1C(=O)N[C@@H](CC(N)=O)C(=O)N[C@@H](CCCNC(=N)N)C(=O)N[C@@H](CCN)C(=O)N[C@@H]([C@@H](C)O)C(=O)N[C@H](CCN)C(=O)N[C@@H](CCCCN)C(=O)N[C@H](C(=O)N[C@@H](CCN)C(=O)N[C@@H](CCCNC(=N)N)C(=O)N[C@@H](Cc2ccc(O)cc2)C(=O)O)CSSC1(C)C [Example 140] (HELM PEPTIDE1{V.P.I.I.Y.[Pen].N.R.[Dab].T.[NCC[C@@H](N[*:1])C(=O)[*:2]].K.C.[Dab].R.Y}$PEPTIDE1,PEPTIDE1,6:R3-13:R3$$$V2.0)	0%	0.125 µg/mL	0.0625 µg/mL	0.0625 µg/mL	–	–	–
CC[C@H](C)[C@H](NC(=O)[C@@H](NC(=O)[C@@H]1CCCN1C(=O)[C@@H](N)C(C)C)[C@@H](C)CC)C(=O)N[C@@H](Cc1ccc(O)cc1)C(=O)N[C@H]1CSSC(C)(C)[C@@H](C(=O)N[C@@H](CCN)C(=O)N[C@@H](CCCNC(=N)N)C(=O)N[C@@H](Cc2ccc(O)cc2)C(=O)O)NC(=O)[C@H](CCCCN)NC(=O)[C@@H](CCN)NC(=O)[C@H]([C@@H](C)O)NC(=O)[C@H](CCN)NC(=O)[C@H](CCCNC(=N)N)NC(=O)[C@H](CC(N)=O)NC1=O [Example 141] (HELM PEPTIDE1{V.P.I.I.Y.C.N.R.[Dab].T.[NCC[C@@H](N[*:1])C(=O)[*:2]].K.[Pen].[Dab].R.Y}$PEPTIDE1,PEPTIDE1,6:R3-13:R3$$$V2.0)	–	–	0.0625 µg/mL	–	0%	0.25 µg/mL	0.0625 µg/mL
CC[C@H](C)[C@H](NC(=O)[C@@H](NC(=O)[C@@H]1C[C@@H](N)CN1C(=O)[C@@H](N)C(C)C)[C@@H](C)CC)C(=O)N[C@@H](Cc1ccc(O)cc1)C(=O)N[C@H]1CSSC[C@@H](C(=O)N[C@@H](CCN)C(=O)N[C@@H](CCCNC(=N)N)C(=O)N[C@@H](Cc2ccc(O)cc2)C(=O)O)NC(=O)[C@H](CCCCN)NC(=O)[C@@H](CCN)NC(=O)[C@H]([C@@H](C)O)NC(=O)[C@H](CCN)NC(=O)[C@H](CCCNC(=N)N)NC(=O)[C@H](CC(N)=O)NC1=O [Example 142] (HELM PEPTIDE1{V.[N[C@@H]1C[C@@H](C(=O)[*:2])N([*:1])C1].I.I.Y.C.N.R.[Dab].T.[NCC[C@@H](N[*:1])C(=O)[*:2]].K.C.[Dab].R.Y}$PEPTIDE1,PEPTIDE1,6:R3-13:R3$$$V2.0)	–	–	0.0625 µg/mL	–	0%	0.0625 µg/mL	0.125 µg/mL
CC[C@H](C)[C@H](NC(=O)[C@@H](NC(=O)[C@@H]1C[C@@H](O)CN1C(=O)[C@@H](N)C(C)C)[C@@H](C)CC)C(=O)N[C@@H](Cc1ccc(O)cc1)C(=O)N[C@H]1CSSC[C@@H](C(=O)N[C@@H](CCN)C(=O)N[C@@H](CCCNC(=N)N)C(=O)N[C@@H](Cc2ccc(O)cc2)C(=O)O)NC(=O)[C@H](CCCCN)NC(=O)[C@@H](CCN)NC(=O)[C@H]([C@@H](C)O)NC(=O)[C@H](CCN)NC(=O)[C@H](CCCNC(=N)N)NC(=O)[C@H](CC(N)=O)NC1=O [Example 143] (HELM PEPTIDE1{V.[Hyp].I.I.Y.C.N.R.[Dab].T.[NCC[C@@H](N[*:1])C(=O)[*:2]].K.C.[Dab].R.Y}$PEPTIDE1,PEPTIDE1,6:R3-13:R3$$$V2.0)	–	–	0.03125 µg/mL	–	0%	0.125 µg/mL	0.0625 µg/mL
CC[C@H](C)[C@H](NC(=O)[C@@H]1CCCN1C(=O)[C@@H](N)C(C)C)C(=O)N[C@H](C(=O)N[C@@H](Cc1ccc(O)cc1)C(=O)N[C@H]1CSSC[C@@H](C(=O)N[C@@H](CCN)C(=O)N[C@@H](CCCNC(=N)N)C(=O)N[C@@H](Cc2ccc(O)cc2)C(=O)O)NC(=O)[C@H](CCCCN)NC(=O)[C@@H](CCN)NC(=O)[C@H]([C@@H](C)O)NC(=O)[C@H](CCN)NC(=O)[C@H](CCCNC(=N)N)NC(=O)[C@H](CC(N)=O)NC1=O)[C@@H](C)O [Example 144] (HELM PEPTIDE1{V.P.I.T.Y.C.N.R.[Dab].T.[NCC[C@@H](N[*:1])C(=O)[*:2]].K.C.[Dab].R.Y}$PEPTIDE1,PEPTIDE1,6:R3-13:R3$$$V2.0)	–	–	0.25 µg/mL	–	0%	0.125 µg/mL	0.0625 µg/mL
CC[C@H](C)[C@H](NC(=O)[C@@H]1CCCN1C(=O)[C@@H](N)C(C)C)C(=O)N[C@@H](Cc1ccccc1)C(=O)N[C@@H](Cc1ccc(O)cc1)C(=O)N[C@H]1CSSC[C@@H](C(=O)N[C@@H](CCN)C(=O)N[C@@H](CCCNC(=N)N)C(=O)N[C@@H](Cc2ccc(O)cc2)C(=O)O)NC(=O)[C@H](CCCCN)NC(=O)[C@@H](CCN)NC(=O)[C@H]([C@@H](C)O)NC(=O)[C@H](CCN)NC(=O)[C@H](CCCNC(=N)N)NC(=O)[C@H](CC(N)=O)NC1=O [Example 145] (HELM PEPTIDE1{V.P.I.F.Y.C.N.R.[Dab].T.[NCC[C@@H](N[*:1])C(=O)[*:2]].K.C.[Dab].R.Y}$PEPTIDE1,PEPTIDE1,6:R3-13:R3$$$V2.0)	–	–	0.0625 µg/mL	–	0%	0.125 µg/mL	0.0625 µg/mL
CC[C@H](C)[C@H](NC(=O)[C@@H](NC(=O)[C@@H]1CCCN1C(=O)[C@@H](O)C(C)C)[C@@H](C)CC)C(=O)N[C@@H](Cc1ccc(O)cc1)C(=O)N[C@H]1CSSC[C@@H](C(=O)N[C@@H](CCN)C(=O)N[C@@H](CCCNC(=N)N)C(=O)N[C@@H](Cc2ccc(O)cc2)C(=O)O)NC(=O)[C@H](CCCCN)NC(=O)[C@@H](CCN)NC(=O)[C@H]([C@@H](C)O)NC(=O)[C@H](CCN)NC(=O)[C@H](CCCNC(=N)N)NC(=O)[C@H](CC(N)=O)NC1=O [Example 146] (HELM PEPTIDE1{[CC(C)[C@H](O)C(=O)[*:2]].P.I.I.Y.C.N.R.[Dab].T.[NCC[C@@H](N[*:1])C(=O)[*:2]].K.C.[Dab].R.Y}$PEPTIDE1,PEPTIDE1,6:R3-13:R3$$$V2.0)	–	–	0.5 µg/mL	–	0%	0.5 µg/mL	0.5 µg/mL
CC[C@H](C)[C@H](NC(=O)[C@@H](NC(=O)[C@@H]1C[C@@H](O)CN1C(=O)[C@@H](N)C(C)C)[C@@H](C)CC)C(=O)N[C@@H](Cc1ccc(O)cc1)C(=O)N[C@@H]1C(=O)N[C@@H](CC(N)=O)C(=O)N[C@@H](CCCNC(=N)N)C(=O)N[C@@H](CCN)C(=O)N[C@@H]([C@@H](C)O)C(=O)N[C@H](CCN)C(=O)N[C@@H](CCCCN)C(=O)N[C@H](C(=O)N[C@@H](CCN)C(=O)N[C@@H](CCCNC(=N)N)C(=O)N[C@@H](Cc2ccc(O)cc2)C(=O)O)CSSC1(C)C [Example 147] (HELM PEPTIDE1{V.[Hyp].I.I.Y.[Pen].N.R.[Dab].T.[NCC[C@@H](N[*:1])C(=O)[*:2]].K.C.[Dab].R.Y}$PEPTIDE1,PEPTIDE1,6:R3-13:R3$$$V2.0)	0%	0.25 µg/mL	0.0625 µg/mL	0.125 µg/mL	–	–	–
CC[C@H](C)[C@H](NC(=O)[C@@H]1C[C@@H](O)CN1C(=O)[C@@H](N)C(C)C)C(=O)N[C@H](C(=O)N[C@@H](Cc1ccc(O)cc1)C(=O)N[C@@H]1C(=O)N[C@@H](CC(N)=O)C(=O)N[C@@H](CCCNC(=N)N)C(=O)N[C@@H](CCN)C(=O)N[C@@H]([C@@H](C)O)C(=O)N[C@H](CCN)C(=O)N[C@@H](CCCCN)C(=O)N[C@H](C(=O)N[C@@H](CCN)C(=O)N[C@@H](CCCNC(=N)N)C(=O)N[C@@H](Cc2ccc(O)cc2)C(=O)O)CSSC1(C)C)[C@@H](C)O [Example 148] (HELM PEPTIDE1{V.[Hyp].I.T.Y.[Pen].N.R.[Dab].T.[NCC[C@@H](N[*:1])C(=O)[*:2]].K.C.[Dab].R.Y}$PEPTIDE1,PEPTIDE1,6:R3-13:R3$$$V2.0)	–	–	0.125 µg/mL	–	0%	0.25 µg/mL	≤0.125 µg/mL
CC[C@H](C)[C@H](NC(=O)[C@@H]1C[C@@H](O)CN1C(=O)[C@@H](N)C(C)C)C(=O)N[C@H](C(=O)N[C@@H](Cc1ccc(O)cc1)C(=O)N[C@@H]1C(=O)N[C@@H](CC(N)=O)C(=O)N[C@@H](CCCNC(=N)N)C(=O)N[C@@H](CCN)C(=O)N[C@@H]([C@@H](C)O)C(=O)N[C@H](CN)C(=O)N[C@@H](CCCCN)C(=O)N[C@H](C(=O)N[C@@H](CCN)C(=O)N[C@@H](CCCNC(=N)N)C(=O)N[C@@H](Cc2ccc(O)cc2)C(=O)O)CSSC1(C)C)[C@@H](C)O [Example 149] (HELM PEPTIDE1{V.[Hyp].I.T.Y.[Pen].N.R.[Dab].T.[NC[C@@H](N[*:1])C(=O)[*:2]].K.C.[Dab].R.Y}$PEPTIDE1,PEPTIDE1,6:R3-13:R3$$$V2.0)	–	–	0.25 µg/mL	–	0%	0.5 µg/mL	0.25 µg/mL
